One data set has as its system HepG2 cells. The data set can be described thus: MTT assay, hepatotoxicity in HepG2 cells. The class given is cell-based, human. Conditions: HepG2, 24 h. Here is the method: Human hepatocellular carcinoma cells (HepG2) were cultured using standard procedures (protocol from ATCC). Cells were cultured in Eagle’s minimum essential medium (EMEM) in flasks with an area of 25 cm^2 (Falcon), supplemented with 10% of fetal bovine serum (FBS, Life Technologies) with the addition of 100 IU/mL penicillin (Sigma-Aldrich) and 100 μg/mL streptomycin (Sigma-Aldrich) and incubated at 37 °C in a humidified atmosphere with 5% CO2.
The MTT assay was used to determine the viability of HepG2 cells incubated in the presence of compound 27 and DOX. Cells were seeded at a density of 2 × 10^4 in 96-well plates. […] Following cell exposure to each compound 10 μL of MTT reagent (Sigma-Aldrich) was added to each well. After 4 h of incubation (37 °C, 5% CO2) the culture medium was aspirated and formazan crystals were dissolved in 100 μL of DMSO. Then, optical density (OD) at 570 nm was determined on a plate reader (Spectra Max iD3, Molecular Devices). Each individual experiment was repeated at least three times.
A general note: Formazan colour is commonly taken as a measure of viable cells.

A further data set concerns cognitive flexibility. The data set is described as follows: Attentional set-shifting task (ASST). The class given is in vivo, male Sprague-Dawley rats. The note with it: rats. Here is the method: (§1) The experiments were conducted in accordance with the NIH Guide for the Care and Use of Laboratory Animals and were approved by the II Local Ethics Committee for Animal Experiments, Maj Institute of Pharmacology. Male […] Sprague-Dawley rats (Charles River, Germany) weighing ∼250 g at the arrival were housed in the standard laboratory cages, under standard colony A/C controlled conditions: room temperature 21 ± 2 °C, humidity (40–50%), 12 h light/dark cycle (lights on, 06:00) with ad libitum access to food (unless stated otherwise) and water. Rats were allowed to acclimatize for at least 7 days before the start of the experimental procedure. During this week animals were handled at least 3 times. Behavioral testing was carried out during the light phase of the light/dark cycle. At least 1 h before the start of the experiment, rats were transferred to the experimental room for acclimation.
Thirty-two male Sprague-Dawley rats were group housed with a mild food restriction (17 g of food pellets per day) for at least 1 week prior to training.
Testing was conducted in a Plexiglas apparatus (length × width × height: 38 cm × 38 cm × 17 cm) with the grid floor and wall dividing half of the length of the cage into two sections. During testing, one ceramic digging pot (internal diameter of 10.5 cm and a depth of 4 cm) was placed in each section. Each pot was defined by a pair of cues along with two stimulus dimensions. To mark each pot with a distinct odor, 5 μL of a flavoring essence (Dr Oetker, Poland, or The Body Shop, U.K.) was applied to a piece of blotting paper fixed to the external rim of the pot immediately prior to use. A different pot was used for each combination of digging medium and odor; only one odor was ever applied to a given pot. The bait (one-half of a Honey Nut Cheerios, Nestle) was placed at the bottom of the “positive” pot and buried in the digging medium. A small amount of powdered Cheerios was added to the digging media to prevent the rat from trying to detect the buried reward by its smell. […]
Day 3, Testing. […] An incorrect choice was recorded as an error. […]

The test system of data set [1] is scopolamine-induced cognitive impairment. The data set can be described thus: Novel object recognition (NOR) test under scopolamine-induced memory decline. Conditions: rats, scopolamine 1.25 mg/kg ip. The class given is in vivo, male Sprague-Dawley rats. Here is the method: as §1, with “At least 1 h before the start of the experiment, rats were transferred to the experimental room for acclimation.” left out
The procedure consisted of habituation to the arena (without any objects) for 5 min, 24 h before the test, and test session comprised two trials separated by an inter trial interval (ITI). […] Exploration time of the objects and the distance traveled were measured using the Any-maze video tracking system. On the basis of exploration time (E) of two objects during T2, discrimination index (DI) was calculated according to the formula: DI = (EB – EA)/(EA + […]).
Data were analyzed using one-way ANOVA with treatment as between-subject factor. […]

For orientation: IC50 means the concentration at which inhibition is half-maximal. With `O=C(N[C@@H]1CCNC1)c1ccn(S(=O)(=O)c2cccc(Cl)c2)c1-c1ccc(F)cc1` [Compound 27, (R)-2-(4-Fluorophenyl)-1-[(3-chlorophenyl)sulfonyl]-N-(pyrrolidin-3-yl)-1H-pyrrole-3-carboxamide], in the data set with HepG2 cells (0.1–25 μM), the “metabolic activity of cells (MTT test)” value is “did not impair the metabolic activity of cells”. For the same molecule, the IC50 in the data set with HepG2 cells (Homo sapiens, printed in Figure 5A, read-out: IC50, cellular viability (MTT)) amounted to 32.3 µM. The “cognitive flexibility (trials to criterion)” value with cognitive flexibility (6 mg/kg p.o.) is listed as “effective only during the Rev2 phase”; with cognitive flexibility (9 mg/kg p.o., ED, Rev1, Rev2, Rev3 stages) it was “enhanced cognitive flexibility”. Also, in the data set with cognitive flexibility (6 and 9 mg/kg p.o., all discrimination stages), the “mean time to complete the trial” value was “did not affect the mean time to complete the trial”. The “effect on scopolamine-induced cognitive deficits (discrimination index)” value was “not 3 mg/kg, prevented scopolamine-induced cognitive deficits” in data set [1] (3 mg/kg p.o.) and “prevented scopolamine-induced cognitive deficits” in data set [1] (6 mg/kg p.o.).

Source of the values: paper PMC8041276 (ACS Chemical Neuroscience, 2021).
